Test [1] addresses T1, Vitamin D3 receptor (Rattus norvegicus) (UniProt P13053).
T1 sequence (whole entry): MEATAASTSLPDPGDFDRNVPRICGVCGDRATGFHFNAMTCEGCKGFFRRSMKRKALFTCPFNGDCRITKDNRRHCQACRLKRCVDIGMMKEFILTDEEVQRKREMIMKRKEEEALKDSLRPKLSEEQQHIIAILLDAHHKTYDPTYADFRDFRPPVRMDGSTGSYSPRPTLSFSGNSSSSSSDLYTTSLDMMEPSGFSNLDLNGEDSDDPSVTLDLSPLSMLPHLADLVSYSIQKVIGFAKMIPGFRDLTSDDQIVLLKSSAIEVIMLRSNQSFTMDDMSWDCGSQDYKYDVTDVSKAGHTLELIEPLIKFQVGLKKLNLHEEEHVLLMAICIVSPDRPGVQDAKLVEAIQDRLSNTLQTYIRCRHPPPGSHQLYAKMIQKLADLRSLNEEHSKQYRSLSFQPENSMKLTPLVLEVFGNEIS
Kind of test: In vitro vitamin D receptor-mediated transcriptional activity in rat osteosarcoma ROS 17/2.8 cells.

Test [2] deals with T1, Vitamin D3 receptor (Rattus norvegicus). Kind of test: Percent relative binding affinity for vitamin D receptor VDR. In kind it is functional.

This note sets out measurements from ChEMBL document CHEMBL1135923, “Conceptually new low-calcemic oxime analogues of the hormone 1 alpha,25-dihydroxyvitamin D(3): synthesis and biological testing” (J Med Chem, 2002).

SMILES strings stand for the structures.

As to `C=C1/C(=C\C=C2/CCC[C@]3(C)C([C@H](C)CCC/C(=N\OC)C(C)(C)C)=CC[C@@H]23)C[C@H](O)C[C@H]1O`, the ED50 in test [1] stood at 2 nM. The molecule also showed an RBA in test [2] below 3%.

In the case of `C=C1/C(=C\C=C2/CCC[C@]3(C)[C@@H]([C@H](C)CCCC(C)(C)O)CC[C@@H]23)C[C@@H](O)C[C@@H]1O`, the ED50 in test [1] came to 0.4 nM. With `C=C1/C(=C\C=C2/CCC[C@]3(C)C([C@H](C)CCC/C(=N\O)C(C)(C)C)=CC[C@@H]23)C[C@H](O)C[C@H]1O`, the ED50 in test [1] was 10 nM. In test [2], this molecule yielded an RBA of 3%.

In turn, `C=C1/C(=C\C=C2/CCC[C@]3(C)C([C@H](C)CCCC(=O)C(C)(C)C)=CC[C@@H]23)C[C@H](O)C[C@H]1O` returned an ED50 in test [1] of 0.1 nM. Also, the RBA in test [2] came out at 35%.
